The record followed here is the NIST ThermoML archive (doi:10.1021/acs.jced.8b00081).

± gives the expanded uncertainty stated by the source.

The nature of the data set: wn = mass fraction of the nth substance listed. As to conditions: 88.35 kPa, Liquid, Pycnometric method.

For `[Cl-].[K+]` [potassium chloride] + O, the mass density is, setting by setting: (298.15 K, w1 = 0.2672) 1180 ± 12 kg/m3; (313.15 K, w1 = 0.29) 1192 ± 12 kg/m3.
